Laboratory results from patent publication US5294609A, “DNA gyrase inhibitors and pharmaceutical preparations therefor” (Hoffmann-LaRoche Inc., priority 1991, dated 1994).

Experiments:
[1] = Physicochemical properties of compound Ia
DNA gyrase = molecular target: T1, DNA gyrase (Escherichia coli, UniProt P0AES6); assay: Inhibition of DNA gyrase activity (DNA gyrase supercoiling assay); format: biochemical, E. coli H560; settings: relaxed PUC18 substrate
T1 construct: supercoiling of relaxed pUC18 plasmid
Method: The inhibition of DNA gyrase activity was measured using a DNA gyrase supercoiling assay according to R. Otter & N. Cozzarelli:Methods in Enzymology, Vol. 100, pp 171-180 (1983). DNA gyrase was isolated from E. coli H560, and relaxed PUC18 plasmed was used as substrate. The activities as regards inhibition of DNA gyrase activity, expressed as maximum non-effective concentration of the test compound (MNC in μg/ml) are compiled in the following Table 4: […]

Q: For Cc1c(O)cc(O)c2c1C(=O)OC[C@H](NC(=O)[C@@H]1[C@H](O)CCN1C(=O)[C@@H](N)CO)C(=O)N[C@H](C(=O)N[C@@H](C)C(=O)O)CSC2 [Example 12, N-[[(4R,7S)-1,3,4,5,6,7 8,10-octahydro-12,14-dihydroxy-7-[[(3R)-3-hydroxy-1-L-seryl-L-prolyl]amino]-11-methyl-6,10-dioxo-9,2,5-benzoxathiaazacyclododecin-4-yl]carbonyl]-L-alanine], which “solubility (in words)” value [1] is on record?
A: Its value is “water soluble”.

Q: And the “maximum non-effective concentration of the test compound (MNC)” value (DNA gyrase)?
A: The value was 5 µg/mL.
